Structures are written as SMILES. Counter-ions that a name gives are not always drawn.

For the first series, the target named is T1, ENaC (Homo sapiens, UniProt P37088+P51168+P51170).
T1 construct: host or cells: primary human bronchial epithelial cells (HBECs) differentiated at air-liquid interface
T1 sequence (P37088 1-669): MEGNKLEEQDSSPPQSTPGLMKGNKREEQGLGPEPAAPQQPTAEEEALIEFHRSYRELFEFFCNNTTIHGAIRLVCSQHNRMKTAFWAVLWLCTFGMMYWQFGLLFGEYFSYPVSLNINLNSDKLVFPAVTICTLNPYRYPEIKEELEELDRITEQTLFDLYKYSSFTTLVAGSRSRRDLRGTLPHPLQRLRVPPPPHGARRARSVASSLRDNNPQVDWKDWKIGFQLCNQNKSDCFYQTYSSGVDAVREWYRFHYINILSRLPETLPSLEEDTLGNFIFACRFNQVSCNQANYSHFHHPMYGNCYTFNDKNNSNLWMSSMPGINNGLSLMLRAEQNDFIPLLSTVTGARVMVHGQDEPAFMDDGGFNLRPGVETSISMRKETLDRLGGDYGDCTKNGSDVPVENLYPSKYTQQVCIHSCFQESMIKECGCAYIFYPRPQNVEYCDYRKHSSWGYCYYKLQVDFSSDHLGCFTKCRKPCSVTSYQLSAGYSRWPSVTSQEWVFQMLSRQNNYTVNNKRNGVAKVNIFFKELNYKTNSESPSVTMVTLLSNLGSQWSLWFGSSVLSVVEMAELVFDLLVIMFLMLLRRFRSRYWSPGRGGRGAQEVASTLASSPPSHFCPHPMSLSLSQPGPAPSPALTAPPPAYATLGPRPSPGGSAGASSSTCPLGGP
T1 sequence (P51168 1-640): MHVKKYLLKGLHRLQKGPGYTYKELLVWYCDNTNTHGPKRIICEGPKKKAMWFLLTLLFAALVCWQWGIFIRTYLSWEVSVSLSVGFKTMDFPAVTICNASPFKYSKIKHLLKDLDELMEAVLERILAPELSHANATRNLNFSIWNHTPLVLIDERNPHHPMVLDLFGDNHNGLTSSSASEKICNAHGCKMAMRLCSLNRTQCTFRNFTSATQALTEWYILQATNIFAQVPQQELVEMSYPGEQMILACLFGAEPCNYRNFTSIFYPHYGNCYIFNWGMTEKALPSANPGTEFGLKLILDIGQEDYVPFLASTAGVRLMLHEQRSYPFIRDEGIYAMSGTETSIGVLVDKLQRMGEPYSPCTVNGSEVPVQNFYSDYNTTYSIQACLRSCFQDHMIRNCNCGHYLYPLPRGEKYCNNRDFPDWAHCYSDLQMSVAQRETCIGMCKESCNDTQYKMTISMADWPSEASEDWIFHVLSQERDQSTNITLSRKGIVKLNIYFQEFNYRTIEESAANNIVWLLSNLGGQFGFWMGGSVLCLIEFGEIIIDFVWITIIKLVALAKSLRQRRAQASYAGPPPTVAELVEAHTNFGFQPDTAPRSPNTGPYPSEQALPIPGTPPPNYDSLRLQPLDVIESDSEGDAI
T1 sequence (P51170 1-649): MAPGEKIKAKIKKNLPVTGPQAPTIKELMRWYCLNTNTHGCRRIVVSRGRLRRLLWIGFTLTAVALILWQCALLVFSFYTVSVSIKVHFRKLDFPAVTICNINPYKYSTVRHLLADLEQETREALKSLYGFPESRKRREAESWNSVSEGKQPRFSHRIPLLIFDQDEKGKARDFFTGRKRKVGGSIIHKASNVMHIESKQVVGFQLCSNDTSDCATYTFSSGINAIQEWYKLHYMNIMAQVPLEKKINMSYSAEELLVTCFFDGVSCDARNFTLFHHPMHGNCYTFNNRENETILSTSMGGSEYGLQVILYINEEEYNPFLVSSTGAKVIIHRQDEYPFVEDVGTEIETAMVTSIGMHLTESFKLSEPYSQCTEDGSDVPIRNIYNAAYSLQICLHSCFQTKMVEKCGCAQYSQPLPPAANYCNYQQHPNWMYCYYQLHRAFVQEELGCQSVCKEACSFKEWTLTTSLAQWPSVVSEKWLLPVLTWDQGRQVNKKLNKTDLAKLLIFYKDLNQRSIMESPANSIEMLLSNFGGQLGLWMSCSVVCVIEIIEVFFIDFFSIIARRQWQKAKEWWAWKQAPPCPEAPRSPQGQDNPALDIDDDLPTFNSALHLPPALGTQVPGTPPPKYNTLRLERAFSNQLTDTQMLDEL
Briefly: Short circuit current assay to determine ENaC blocker potency in human bronchial epithelial cells. It counts as cell-based. Particulars: 50% inhibition of total amiloride-sensitive ISC, apical addition, read-out: Averages.ENaC IC50 (nM) Avg. An outline of the steps:
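Primary human bronchial epithelial cells at air-liquid interface (days 14–21) were voltage-clamped at 0 mV in Ussing chambers (Ringer, pH 7.4, 37° C.). Compounds were added apically as cumulative concentrations, then 10 μM amiloride. IC50 was taken as 50% inhibition of amiloride-sensitive ISC.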
On to `CCn1c(CNC(=O)c2nc3cc[nH]c3nc2N)[n+](CC)c2cc(CCCN(C[C@H](O)[C@@H](O)[C@H](O)[C@H](O)CO)C[C@H](O)[C@@H](O)[C@H](O)[C@H](O)CO)ccc21` [Example 45, 2-[({3-amino-5H-pyrrolo[2,3-b]pyrazin-2-yl}formamido)methyl]-5-(3-{bis[(2S,3R,4R,5R)-2,3,4,5,6-pentahydroxyhexyl]amino}propyl)-1,3-diethyl-1H-1,3-benzodiazol-3-ium], for which the IC50 (in general, the point on the concentration scale where inhibition reaches its midpoint) worked out at 14 nM.
Same read-out and setting: then `CCn1c(CNC(=O)c2nc3cc[nH]c3nc2N)[n+](CC)c2ccc(C3CCN(C[C@H](O)[C@@H](O)[C@H](O)[C@H](O)CO)CC3)cc21` [Example 46, 2-[({3-amino-5H-pyrrolo[2,3-b]pyrazin-2-yl}formamido)methyl]-1,3-diethyl-6-{1-[(2S,3R,4R,5R)-2,3,4,5,6-pentahydroxyhexyl]piperidin-4-yl}-1H-1,3-benzodiazol-3-ium], with 8 nM.
For `CCn1c(CNC(=O)c2nc3cc[nH]c3nc2N)[n+](CC)c2ccc(-c3cnn(C4CCN(C[C@H](O)[C@@H](O)[C@H](O)[C@H](O)CO)CC4)c3)cc21` [Example 47, 2-[({3-amino-5H-pyrrolo[2,3-b]pyrazin-2-yl}formamido)methyl]-1,3-diethyl-6-(1-{1-[(2S,3R,4R,5R)-2,3,4,5,6-pentahydroxyhexyl]piperidin-4-yl}-1H-pyrazol-4-yl)-1H-1,3-benzodiazol-3-ium], the IC50 worked out at 5 nM.
Take `CCn1c(CNC(=O)c2nc3cc[nH]c3nc2N)[n+](CC)c2ccc(C(=O)NCCCN(C[C@H](O)[C@@H](O)[C@H](O)[C@H](O)CO)C[C@H](O)[C@@H](O)[C@H](O)[C@H](O)CO)cc21` [Example 48, 2-[({3-amino-5H-pyrrolo[2,3-b]pyrazin-2-yl}formamido)methyl]-6-[(3-{bis[(2S,3R,4R,5R)-2,3,4,5,6-pentahydroxyhexyl]amino}propyl)carbamoyl]-1,3-diethyl-1H-1,3-benzodiazol-3-ium]: the IC50 was determined as 18 nM.
With `CCn1c(CNC(=O)c2nc3cc[nH]c3nc2N)[n+](CC)c2ccc(C(=O)NC3CCN(C[C@H](O)[C@@H](O)[C@H](O)[C@H](O)CO)CC3)cc21` [Example 49, 2-[({3-amino-5H-pyrrolo[2,3-b]pyrazin-2-yl}formamido)methyl]-1,3-diethyl-6-({1-[(2S,3R,4R,5R)-2,3,4,5,6-pentahydroxyhexyl]piperidin-4-yl}carbamoyl)-1H-1,3-benzodiazol-3-ium], the IC50 is 7 nM.
On the same count and under the same terms, the same measure for `CCn1c(CNC(=O)c2nc3cc[nH]c3nc2N)[n+](CC)c2ccc(C(=O)N3CCC(N(C[C@H](O)[C@@H](O)[C@H](O)[C@H](O)CO)C[C@H](O)[C@@H](O)[C@H](O)[C@H](O)CO)CC3)cc21` [Example 50, 2-[({3-amino-5H-pyrrolo[2,3-b]pyrazin-2-yl}formamido)methyl]-6-(4-{bis[(2S,3R,4R,5R)-2,3,4,5,6-pentahydroxyhexyl]amino}piperidine-1-carbonyl)-1,3-diethyl-1H-1,3-benzodiazol-3-ium]: 35 nM; for `CCn1c(CNC(=O)c2nc3cc[nH]c3nc2N)[n+](CC)c2ccc(C(=O)NCCN3CCC(N(C[C@H](O)[C@@H](O)[C@H](O)[C@H](O)CO)C[C@H](O)[C@@H](O)[C@H](O)[C@H](O)CO)CC3)cc21` [Example 51, 2-[({3-amino-5H-pyrrolo[2,3-b]pyrazin-2-yl}formamido)methyl]-6-{[2-(4-{bis[(2S,3R,4R,5R)-2,3,4,5,6-pentahydroxyhexyl]amino}piperidin-1-yl)ethyl]carbamoyl}-1,3-diethyl-1H-1,3-benzodiazol-3-ium]: 38 nM; for `CCn1c(CNC(=O)c2nc3cc[nH]c3nc2N)[n+](CC)c2ccc(C(=O)N3CC[C@@H](N(C[C@H](O)[C@@H](O)[C@H](O)[C@H](O)CO)C[C@H](O)[C@@H](O)[C@H](O)[C@H](O)CO)C3)cc21` [Example 53, 2-[({3-amino-5H-pyrrolo[2,3-b]pyrazin-2-yl}formamido)methyl]-6-[(3R)-3-{bis[(2S,3R,4R,5R)-2,3,4,5,6-pentahydroxyhexyl]amino}pyrrolidine-1-carbonyl]-1,3-diethyl-1H-1,3-benzodiazol-3-ium]: 202 nM.
In the case of `CCn1c(CNC(=O)c2nc3c(Cl)c[nH]c3nc2N)[n+](CC)c2ccc(C(=O)O)cc21` [Example 63, 2-[({3-amino-7-chloro-5H-pyrrolo[2,3-b]pyrazin-2-yl}formamido)methyl]-6-carboxy-1,3-diethyl-1H-1,3-benzodiazol-3-ium], the IC50 turned out to be 133 nM.
In the case of `CCn1c(CNC(=O)c2nc3c(Br)c[nH]c3nc2N)[n+](CC)c2ccc(C(=O)O)cc21` [Example 64, 2-[({3-amino-7-bromo-5H-pyrrolo[2,3-b]pyrazin-2-yl}formamido)methyl]-6-carboxy-1,3-diethyl-1H-1,3-benzodiazol-3-ium], the IC50 stood at 244 nM.
As to `CCn1c(CNC(=O)c2nc3c(Cl)c[nH]c3nc2N)[n+](CC)c2ccc(C(=O)N3CCC(N(C[C@H](O)[C@@H](O)[C@H](O)[C@H](O)CO)C[C@H](O)[C@@H](O)[C@H](O)[C@H](O)CO)CC3)cc21` [Example 65, 2-[({3-amino-7-chloro-5H-pyrrolo[2,3-b]pyrazin-2-yl}formamido)methyl]-6-(4-{bis[(2S,3R,4R,5R)-2,3,4,5,6-pentahydroxyhexyl]amino}piperidine-1-carbonyl)-1,3-diethyl-1H-1,3-benzodiazol-3-ium], the IC50 turned out to be 49 nM.
With `CCn1c(CNC(=O)c2nc3c(Br)c[nH]c3nc2N)[n+](CC)c2ccc(C(=O)N3CCC(N(C[C@H](O)[C@@H](O)[C@H](O)[C@H](O)CO)C[C@H](O)[C@@H](O)[C@H](O)[C@H](O)CO)CC3)cc21` [Example 66, 2-[({3-amino-7-bromo-5H-pyrrolo[2,3-b]pyrazin-2-yl}formamido)methyl]-6-(4-{bis[(2S,3R,4R,5R)-2,3,4,5,6-pentahydroxyhexyl]amino}piperidine-1-carbonyl)-1,3-diethyl-1H-1,3-benzodiazol-3-ium], the IC50 worked out at 199 nM.
In the case of `CCn1c(CNC(=O)c2nc3c(C#N)c[nH]c3nc2N)[n+](CC)c2ccc(OC)cc21` [Example 67, 2-[({3-amino-7-cyano-5H-pyrrolo[2,3-b]pyrazin-2-yl}formamido)methyl]-1,3-diethyl-6-methoxy-1H-1,3-benzodiazol-3-ium formate], the IC50 stood at 54 nM.

Tested on in the next series: not listed separately
Briefly: Bronchoalveolar lavage (BAL) procedure: compound levels after intratracheal administration. It counts as in vivo. Particulars: bronchoalveolar lavage fluid (BAL), other: intratracheal, 0.1 mg/kg, rat, 0.1 mg/mL solution in 5% dextrose, 1 mL/Kg, BAL 6 hours after administration, LC/MS/MS. As for the experimental part: Example 69—Bronchoalveolar Lavage (BAL) Procedure A 0.1 mg/mL solution of ENaC inhibitor in 5% dextrose was administered intratracheally to a rat weighing 225-250 g. A volume of 1 mL/Kg was used. After 6 hours, lungs were lavaged with 3×4 mL of sterile saline. A 1 mL aliquot was subsequently snap frozen. Lungs were excised, weighed and snap frozen. Compound levels in the BAL and lung tissue were subsequently determined using LC/MS/MS bioanalysis.
`CCn1c(CNC(=O)c2nc3cc[nH]c3nc2N)[n+](CC)c2ccc(C(=O)N3CCC(N(C[C@H](O)[C@@H](O)[C@H](O)[C@H](O)CO)C[C@H](O)[C@@H](O)[C@H](O)[C@H](O)CO)CC3)cc21` [Example 50, 2-[({3-amino-5H-pyrrolo[2,3-b]pyrazin-2-yl}formamido)methyl]-6-(4-{bis[(2S,3R,4R,5R)-2,3,4,5,6-pentahydroxyhexyl]amino}piperidine-1-carbonyl)-1,3-diethyl-1H-1,3-benzodiazol-3-ium] showed a concentration at 6 h of 260 ng/mL.

The values are drawn from patent publication US12371436B2, “Substituted benzodiazoliums as ENaC inhibitors” (ENTERPRISE THERAPEUTICS LIMITED, priority 2016, dated 2025).
